{"source": "patent US8609678B2", "about": "“Reverse amide compounds as protein deacetylase inhibitors and methods of use thereof” (Acetylon Pharmaceuticals, priority 2010, dated 2013)", "key": {"HDAC3": {"biological_target": "HDAC3 (Homo sapiens (Human), UniProt O15379)", "sequence (O15379 whole entry)": "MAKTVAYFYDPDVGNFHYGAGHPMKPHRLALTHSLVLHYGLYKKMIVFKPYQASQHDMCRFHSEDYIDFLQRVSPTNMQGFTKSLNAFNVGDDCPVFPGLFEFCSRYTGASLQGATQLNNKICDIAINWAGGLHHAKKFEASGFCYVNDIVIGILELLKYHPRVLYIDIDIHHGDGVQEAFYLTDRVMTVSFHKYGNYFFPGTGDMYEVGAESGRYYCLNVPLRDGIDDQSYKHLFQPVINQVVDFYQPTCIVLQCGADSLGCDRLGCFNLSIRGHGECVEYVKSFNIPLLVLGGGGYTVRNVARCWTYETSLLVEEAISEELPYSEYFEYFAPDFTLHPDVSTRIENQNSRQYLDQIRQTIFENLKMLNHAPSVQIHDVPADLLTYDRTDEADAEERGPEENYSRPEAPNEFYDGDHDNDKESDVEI", "sequence (Q9Y618 395-489 partner)": "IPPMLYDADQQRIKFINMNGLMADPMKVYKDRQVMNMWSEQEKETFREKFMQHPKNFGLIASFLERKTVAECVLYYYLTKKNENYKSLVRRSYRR", "assay": "HDAC enzyme assay, HDAC3", "type": "biochemical", "protocol": "(§1) Compounds for testing were diluted in DMSO to 50 fold the final concentration and a ten point three fold dilution series was made. The compounds were diluted in assay buffer (50 mM HEPES, pH 7.4, 100 mM KCl, 0.001% Tween-20, 0.05% BSA, 20 μM TCEP) to 6 fold their final concentration. […] The tripeptide substrate and trypsin at 0.05 μM final concentration were diluted in assay buffer at 6 fold their final concentration. The final enzyme concentrations used in these assays were 3.3 ng/ml (HDAC1), 0.2 ng/ml (HDAC2), 0.08 ng/ml (HDAC3) and 2 ng/ml (HDAC6). […] Five μl compounds and 20 μl of enzyme were added to wells of a black, opaque 384 well plate in duplicate. Enzyme and compound were incubated together at room temperature for 10 minutes. […] The development of fluorescence was monitored for 60 min and the linear rate of the reaction was calculated. The IC50 was determined using Graph Pad Prism by a four parameter curve fit."}, "HDAC6": {"biological_target": "HDAC6 (Homo sapiens (Human), UniProt Q9UBN7)", "sequence (Q9UBN7 whole entry)": "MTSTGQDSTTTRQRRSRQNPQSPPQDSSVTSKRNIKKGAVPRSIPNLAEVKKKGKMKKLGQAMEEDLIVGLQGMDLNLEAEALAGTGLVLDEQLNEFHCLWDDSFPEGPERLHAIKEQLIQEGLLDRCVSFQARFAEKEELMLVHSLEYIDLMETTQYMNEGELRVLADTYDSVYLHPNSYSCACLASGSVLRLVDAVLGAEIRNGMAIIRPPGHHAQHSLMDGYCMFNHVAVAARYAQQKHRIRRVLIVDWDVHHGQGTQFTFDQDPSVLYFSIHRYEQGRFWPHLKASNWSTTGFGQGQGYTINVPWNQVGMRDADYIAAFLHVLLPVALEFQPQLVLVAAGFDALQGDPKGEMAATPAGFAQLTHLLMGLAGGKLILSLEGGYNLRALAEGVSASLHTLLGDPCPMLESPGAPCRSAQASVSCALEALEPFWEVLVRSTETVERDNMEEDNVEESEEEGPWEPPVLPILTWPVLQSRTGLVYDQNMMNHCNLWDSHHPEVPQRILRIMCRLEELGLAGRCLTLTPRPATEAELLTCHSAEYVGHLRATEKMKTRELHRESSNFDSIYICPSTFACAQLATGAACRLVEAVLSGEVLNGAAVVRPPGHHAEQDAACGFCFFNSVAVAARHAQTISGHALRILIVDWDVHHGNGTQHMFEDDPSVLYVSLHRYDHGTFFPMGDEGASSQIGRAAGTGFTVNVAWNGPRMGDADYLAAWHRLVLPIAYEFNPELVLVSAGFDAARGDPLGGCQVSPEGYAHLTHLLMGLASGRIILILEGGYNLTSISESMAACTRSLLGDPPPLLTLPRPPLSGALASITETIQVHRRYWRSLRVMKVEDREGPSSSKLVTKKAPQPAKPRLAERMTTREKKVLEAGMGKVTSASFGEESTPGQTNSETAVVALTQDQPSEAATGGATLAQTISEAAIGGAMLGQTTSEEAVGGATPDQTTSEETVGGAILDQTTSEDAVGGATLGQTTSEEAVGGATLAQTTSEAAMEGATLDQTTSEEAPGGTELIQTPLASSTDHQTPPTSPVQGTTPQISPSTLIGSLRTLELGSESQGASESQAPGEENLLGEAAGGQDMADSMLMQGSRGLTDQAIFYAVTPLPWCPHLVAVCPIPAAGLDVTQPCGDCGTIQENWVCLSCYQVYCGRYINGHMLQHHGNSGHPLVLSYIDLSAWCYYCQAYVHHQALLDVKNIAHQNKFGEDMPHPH", "assay": "HDAC enzyme assay, HDAC6", "protocol": "as §1"}, "refractory relapsed MM": {"test_system": "refractory relapsed MM", "details": "202 patients with refractory relapsed MM; cited from earlier work"}}, "note": "Where two headings read alike, the source gives them in different places.", "data": [{"compound": "COC(c1ccccc1)(c1ccccc1)c1ccc(C(=O)NCCCCCCC(=O)NO)cc1", "note": "[N-(7-(hydroxyamino)-7-oxoheptyl)-4-(methoxydiphenylmethyl)benzamide]", "values": [{"measurement": "IC50", "setting": "HDAC3; 0.08 ng/ml enzyme, 17 μM tripeptide substrate, read-out: IC50(nM) HDAC3", "value": 243, "unit": "nM"}, {"measurement": "IC50", "setting": "HDAC6", "value": 0.007, "unit": "µM"}]}, {"compound": "CC(C)C[C@H](NC(=O)[C@H](Cc1ccccc1)NC(=O)c1cnccn1)B(O)O", "note": "[bortezomib]", "values": [{"measurement": "complete and near complete responses", "setting": "refractory relapsed MM", "value": 10, "unit": "%"}, {"measurement": "patients did not respond", "setting": "refractory relapsed MM", "value": 65, "unit": "%"}, {"measurement": "responses", "setting": "refractory relapsed MM", "value": 35, "unit": "%"}]}, {"compound": "NC(=O)CCCCCCNC(=O)c1cnc(N(c2ccccc2)c2ccccc2)nc1", "note": "[N-(7-amino-7-oxoheptyl)-2-(diphenylamino)pyrimidine-5-carboxamide]", "values": [{"measurement": "IC50", "setting": "HDAC3; μM, read-out: IC50 HDAC3", "value": "> 50000", "unit": "nM"}, {"measurement": "IC50", "setting": "HDAC6; read-out: IC50 HDAC6, μM", "value": "> 50", "unit": "µM"}]}]}
